pIC50: −log10 of the molar value.
Target: T1, PPARγ (Homo sapiens, UniProt P37231)
T1 sequence (P37231 1-505): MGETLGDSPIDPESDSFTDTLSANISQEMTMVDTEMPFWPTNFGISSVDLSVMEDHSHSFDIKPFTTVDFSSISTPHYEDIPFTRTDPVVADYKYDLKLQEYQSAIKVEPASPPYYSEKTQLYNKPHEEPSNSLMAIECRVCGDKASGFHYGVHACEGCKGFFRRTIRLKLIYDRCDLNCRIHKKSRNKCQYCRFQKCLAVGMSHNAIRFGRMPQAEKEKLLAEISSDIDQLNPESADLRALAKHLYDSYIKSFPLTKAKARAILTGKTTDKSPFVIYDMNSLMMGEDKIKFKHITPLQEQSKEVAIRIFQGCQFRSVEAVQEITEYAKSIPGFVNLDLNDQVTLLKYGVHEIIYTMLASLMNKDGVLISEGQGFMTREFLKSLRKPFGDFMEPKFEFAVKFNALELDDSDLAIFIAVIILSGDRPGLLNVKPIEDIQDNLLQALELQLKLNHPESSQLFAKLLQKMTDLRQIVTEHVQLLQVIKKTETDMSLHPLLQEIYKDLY
Test: FP-based PPARγ ligand screening assay
Type: binding

SMILES: O=C(/C=C/C=C/c1ccc2c(c1)OCO2)N1CCCCC1 [Piperine]
- pIC50: 4.74

Reference: article PMC7266110 (Drug Design, Development and Therapy, 2020)
